The subject of one assay is MCF-7 (breast cancer). As to the kind of experiment: in vitro cytotoxicity against MCF-7. Particulars: Homo sapiens. It is filed as cell-based. On the procedure: (§1) All compounds were evaluated for their in vitro cytotoxicity against four human cancer lines, SF-268 (human glioblastoma carcinoma), MCF-7 (breast cancer), HepG-2 (liver cancer), and A549 (lung cancer), as well as antioxidative activity, α-glucosidase inhibitory activity, and antimicrobial activity against the bacteria Staphylococcus aureus and Bacillus subtilis (Tables S1–S3).
(§2) The details of the experimental procedures for cytotoxic and antioxidative bioassays were described previously in our former paper.

In a further assay the test system is Staphylococcus aureus. Put plainly: antibacterial assay, Mueller–Hinton broth microdilution. Particulars: for inhibition at 50 µM: primary screening, read-out: Inhibition rate Staphylococcus aureus. It is filed as cell-based. How it is done:
(§3) All the compounds were tested for antibacterial activity against Staphylococcus aureus and Bacillus subtilis using the Mueller–Hinton broth microdilution method. Ciprofloxacin was used as a positive control.
A general note: Dilution methods test growth across graded concentrations, often in twofold steps.

In the next assay the test system is Bacillus subtilis. Described as above. It is filed as cell-based. Particulars: for inhibition at 50 µM: primary screening, read-out: Inhibition rate Bacillus subtilis. On the procedure:
as §3

The next assay concerns A549 (lung cancer). Put plainly: in vitro cytotoxicity against A549. It is filed as cell-based. Particulars: Homo sapiens. On the procedure: as §1, §2
Assay [1] can be described thus: antioxidative activity (DPPH radical scavenging). Particulars: for Inhibition rate antioxidative activity: primary screening, 100 μM; for EC50: DPPH radical scavenging. On the procedure:
as §1, §2
For orientation: Loss of DPPH colour is used to gauge radical scavenging.

Assay [2] concerns SF-268 (human glioblastoma carcinoma). Put plainly: in vitro cytotoxicity against SF-268. It is filed as cell-based. How it is done: as §1, §2
For a further assay, the system named is HepG-2 (liver cancer). As to the kind of experiment: in vitro cytotoxicity against HepG-2. The format is cell-based. Particulars: Homo sapiens. How it is done: as §1, §2
Assay [3] relates to intersegmental vessel (ISV) formation. Put plainly: zebrafish assay for in vivo anti-angiogenic activity. Particulars: zebrafish embryos. On the procedure: The maintenance of zebrafish and the collection of embryos followed the method in the literature. One day after fertilization, the embryos were dechorionated with tweezers in a Petri dish coated with 1% agarose and distributed into small Petri dishes (35 × 10 mm) with 3 mL of assay solution, depending on the drug treatment. The embryos receiving a mixture of DMSO (0.1%) were used as the vehicle-treated control and were equivalent to a “no treatment” group. All the experiments were repeated at least three times, with 20 embryos per group.

Where [4] appears, read: MCF7, MCF-7 cells, mean ± SD, read-out: IC50 MCF-7.
Where [5] appears, read: Table 4, mean ± SD, read-out: MIC Staphylococcus aureus.
Where [6] appears, read: Table 4, mean ± SD, read-out: MIC Bacillus subtilis.
[7] abbreviates: A549, primary screening, 50 μM, read-out: Inhibition rate A549.
[8] abbreviates: MCF7, primary screening, 50 μM, read-out: Inhibition rate MCF-7.
Where [9] appears, read: SF-268, primary screening, 50 μM, read-out: Inhibition rate SF-268.
The mark [10] stands for this setting: HepG2, primary screening, 50 μM, read-out: Inhibition rate HepG-2.
[11] abbreviates: read-out: MIC against Bacillus subtilis.
Where [12] appears, read: read-out: MIC against Staphylococcus aureus.

Like-named read-outs stand apart in the source and are kept apart here. Where a SMILES comes first, the peptide text is derived from it. [ ]: non-standard residue; d: D form. NMeF = CN[CH](Cc1ccccc1)C(=O)O; 2Abz = Nc1ccccc1C(=O)O

As to `COc1cccc2c1C(=O)c1c(O)c3c(c(O)c1C2=O)C[C@@](O)(C(=O)CO)C[C@@H]3O[C@H]1C[C@H](N)[C@H](O)[C@H](C)O1` [Adriamycin, reference compound], the IC50 in the assay with MCF-7 (breast cancer) (setting [4]) turned out to be 2.02 ± 0.04 µM.

As to `O=C(O)c1cn(C2CC2)c2cc(N3CCNCC3)c(F)cc2c1=O` [Ciprofloxacin, reference compound], the minimal inhibitory concentration (MIC) worked out at 0.07 ± 0.001 µg/mL in the assay with Staphylococcus aureus (setting [5]) and 0.09 ± 0.003 µg/mL with Bacillus subtilis (setting [6]).

Take `CC(C)[C@H](C)C[C@@H](O)[C@](C)(O)C1CC[C@@]2(O)C3=CC(=O)C4C[C@@H](O)CC[C@]4(C)C3CC[C@]12C` (stereo partly drawn) [Compound 4, schizaeasterone A]: the inhibition at 50 µM with A549 (lung cancer) (setting [7]) was determined as 8.6%; in the assay on Staphylococcus aureus, 19.4%; in the assay with Bacillus subtilis, 5.23%; in the assay with MCF-7 (breast cancer) (setting [8]) it was 19.1%; in assay [2] (setting [9]), 8.79%; in the assay with HepG-2 (liver cancer) (setting [10]), 1.57%. In addition, the “Inhibition rate antioxidative activity” value in assay [1] was 2.80%.

Regarding `CN1C(=O)C(Cc2ccc(O)cc2)NC(=O)CNC(=O)c2ccccc2NC(=O)C1Cc1ccccc1` (stereo not drawn) [Compound 1, asperhiratide] (cyclo([2Abz]GY[NMeF]); configuration not given here), the inhibition at 50 µM turned out to be 4.4% in the assay on A549 (lung cancer) (setting [7]); 5.22% in the assay on Staphylococcus aureus; 3.87% in the assay with Bacillus subtilis; 1.03% in the assay with MCF-7 (breast cancer) (setting [8]); 0.82% in assay [2] (setting [9]); 0.38% in the assay with HepG-2 (liver cancer) (setting [10]). Moreover, the “Inhibition rate antioxidative activity” value in assay [1] is listed as 4.30%. Moreover, the “inhibitory effect on intersegmental vessel (ISV) formation” value in assay [3] is “weak inhibitory effect”.

Consider `C=C1CCC2CC1C2(C)C1CCC(C)C(=O)O1` (stereo not drawn) [Compound 3, asperhiratone], for which the inhibition at 50 µM with A549 (lung cancer) (setting [7]) turned out to be 0.83%; in the assay on Staphylococcus aureus, 7.98%; in the assay on Bacillus subtilis it was 9.17%; in the assay with MCF-7 (breast cancer) (setting [8]), 3.24%; in assay [2] (setting [9]) it was 2.31%; in the assay with HepG-2 (liver cancer) (setting [10]) it was 0.13%. Also, the “Inhibition rate antioxidative activity” value in assay [1] is reported as 2.00%.

`C=C1C[C@]2(O)[C@@]3(C)CCC(=O)C(C)(C)C3=C(O)C(=O)[C@@]2(C)[C@@H]2C(=O)O[C@@](C)(C(=O)OC)C(=O)[C@@]12C` [Compound 5, terretonin]: the inhibition at 50 µM with A549 (lung cancer) (setting [7]) worked out at 2.97%; with Staphylococcus aureus, 11.8%; in the assay with Bacillus subtilis, 8.18%; with MCF-7 (breast cancer) (setting [8]), 5.62%; in assay [2] (setting [9]), 4.58%; with HepG-2 (liver cancer) (setting [10]), 3.52%. In addition, the “Inhibition rate antioxidative activity” value in assay [1] was found to be 1.90%.

Turning to `CC(C)[C@H](C)/C=C/[C@@H](C)[C@H]1CCC2C3=CC(=O)O[C@@]3(O)CC[C@@]21C` (stereo partly drawn) [Compound 6, demethylincisterol A2], the inhibition at 50 µM with A549 (lung cancer) (setting [7]) stood at 0.41%; in the assay on Staphylococcus aureus, 29.4%; with Bacillus subtilis, 79.6%; in the assay on MCF-7 (breast cancer) (setting [8]), 92.2%; in assay [2] (setting [9]) it was 93.2%; in the assay on HepG-2 (liver cancer) (setting [10]) it was 81.4%. Moreover, the concentration for half-maximal inhibition (IC50) with A549 (lung cancer) (A549 cells, mean ± SD, read-out: IC50 A549) is 50.2 ± 0.54 µM; in the assay with MCF-7 (breast cancer) (setting [4]) it was 39.4 ± 0.52 µM; in assay [2] (SF-268 cells, mean ± SD, read-out: IC50 SF-268), 34.8 ± 0.95 µM; in the assay on HepG-2 (liver cancer) (HepG2, HepG-2 cells, mean ± SD, read-out: IC50 HepG-2) it was 43.6 ± 2.08 µM. In assay [1], the “Inhibition rate antioxidative activity” value worked out at 1.00%. Also, the values for the minimal inhibitory concentration (MIC) in the assay with Bacillus subtilis (setting [6]) and in the assay on Bacillus subtilis (setting [11]) were 10.3 ± 0.76 µg/mL and 10.3 ± 0.76 µM, respectively.

In the case of `COC(=O)[C@]1(Cc2ccc(O)c(CC(O)C(C)(C)O)c2)OC(=O)C(O)=C1c1ccc(O)cc1` (stereo partly drawn) [Compound 9, butyrolactones VI], the inhibition at 50 µM was 0.29% in the assay with A549 (lung cancer) (setting [7]); 19.6% with Staphylococcus aureus; 3.76% in the assay with Bacillus subtilis; 17.7% in the assay on MCF-7 (breast cancer) (setting [8]); 8.47% in assay [2] (setting [9]); 5.43% in the assay with HepG-2 (liver cancer) (setting [10]). This compound also displayed an EC50 in assay [1] of 12.2 ± 0.78 µM. For the same compound, in assay [1] (as given in abstract, read-out: radical scavenging activities against DPPH, IC50), the IC50 worked out at 12.2 ± 0.78 µM.

In assay [1], `O=C1O[C@H]([C@@H](O)CO)C(O)=C1O` [Ascorbic acid, reference compound] yielded an EC50 of 11.3 ± 0.56 µM.

As for `C=CC(C)(C)[C@@]12C[C@H]3C(=O)Nc4ccccc4C(=O)N3[C@H]1N(C=O)c1ccccc12` [Compound 10, epi-aszonalenins B], the inhibition at 50 µM turned out to be 0.73% with A549 (lung cancer) (setting [7]); 12.6% in the assay with Staphylococcus aureus; 0.3% in the assay with Bacillus subtilis; 42.2% with MCF-7 (breast cancer) (setting [8]); 32.9% in assay [2] (setting [9]); 6.7% with HepG-2 (liver cancer) (setting [10]). For the same compound, the “Inhibition rate antioxidative activity” value in assay [1] stood at 0.40%.

As for `COC(=O)[C@]1(Cc2ccc(O)c(CC=C(C)C)c2)OC(=O)C(O)=C1c1ccc(O)cc1` [Compound 8, butyrolactone I], the IC50 with A549 (lung cancer) (A549, read-out: IC50 A549) turned out to be 32.3 ± 2.36 µM; in the assay with MCF-7 (breast cancer) (MCF7, read-out: IC50 MCF-7), 38.6 ± 2.48 µM; in assay [2] (SF-268, read-out: IC50 SF-268), 31.4 ± 1.98 µM; with HepG-2 (liver cancer) (HepG2, read-out: IC50 HepG-2), 31 ± 3.04 µM. Further, the inhibition at 50 µM in the assay on A549 (lung cancer) (A549, read-out: Inhibition rate A549) is 21.5%; in the assay with Staphylococcus aureus, 84.4%; in the assay on Bacillus subtilis it was 91.3%; with MCF-7 (breast cancer) (MCF7, read-out: Inhibition rate MCF-7), 50.7%; in assay [2] (SF-268, read-out: Inhibition rate SF-268), 41.9%; in the assay with HepG-2 (liver cancer) (HepG2, read-out: Inhibition rate HepG-2), 69.1%. The “Inhibition rate antioxidative activity” value in assay [1] was 2.50%. The MIC worked out at 59.54 ± 0.5 µg/mL with Staphylococcus aureus (read-out: MIC Staphylococcus aureus), 59.54 ± 0.5 µM in the assay with Staphylococcus aureus (setting [12]), 5.3 ± 0.29 µg/mL with Bacillus subtilis (read-out: MIC Bacillus subtilis) and 5.3 ± 0.29 µM with Bacillus subtilis (setting [11]).

Consider `CC1C(=O)OCC1CC(OC(=O)c1ccccc1)C(C)(O)C1CCC2(O)C3=CC(=O)C4CC(O)C(O)CC4(C)C3CCC12C` [Compound 2, 2S,3R,5R,9S,10R,13R,14R,17S,20R,22R,24S,27S-29-norcyasterone-22-O-benzoate], for which the inhibition at 50 µM with A549 (lung cancer) (setting [7]) was determined as 1.21%; with Staphylococcus aureus it was 4.34%; in the assay with Bacillus subtilis, 0.67%; with MCF-7 (breast cancer) (setting [8]), 1.01%; in assay [2] (setting [9]), 1.43%; in the assay with HepG-2 (liver cancer) (setting [10]) it was 1.45%. In assay [1], the “Inhibition rate antioxidative activity” value is 1.60%.

As to `CCCCCCCc1c(O)cc(CC=C(C)C)c(O)c1C=O` [Compound 11, flavoglaucin], the inhibition at 50 µM was 1.53% in the assay with A549 (lung cancer) (setting [7]); 13% in the assay on Staphylococcus aureus; 17.5% with Bacillus subtilis; 0.49% in the assay on MCF-7 (breast cancer) (setting [8]); 0.81% in assay [2] (setting [9]); 0.39% with HepG-2 (liver cancer) (setting [10]). Further, the “Inhibition rate antioxidative activity” value in assay [1] came out at 18.20%.

For the compound `COC(=O)C1=C[C@@H](O)[C@@H](O)[C@H](O)C1` [Compound 13, methyl shikimate], the inhibition at 50 µM was 0.36% in the assay on A549 (lung cancer) (setting [7]); 11.8% in the assay on Staphylococcus aureus; 7.69% in the assay on Bacillus subtilis; 0.66% in the assay with MCF-7 (breast cancer) (setting [8]); 0.59% in assay [2] (setting [9]); 0.66% in the assay with HepG-2 (liver cancer) (setting [10]). The “Inhibition rate antioxidative activity” value in assay [1] is on record as 32.90%.

`CC(C)=CC=CC(C)C1CCC2(C)CC3C(C)=CC(=O)C3C(C(=O)O)=CCC12` (stereo not drawn) [Compound 7, asperophiobolin E]: the inhibition at 50 µM in the assay with A549 (lung cancer) (setting [7]) was found to be 0.58%; in the assay with Staphylococcus aureus it was 82.4%; with Bacillus subtilis, 94.3%; in the assay on MCF-7 (breast cancer) (setting [8]), 38.8%; in assay [2] (setting [9]), 9.64%; in the assay with HepG-2 (liver cancer) (setting [10]), 40.7%. Moreover, in assay [1], the “Inhibition rate antioxidative activity” value is recorded as 3.60%. The minimum inhibitory concentration (MIC) in the assay on Staphylococcus aureus (setting [5]) is 103 ± 4.5 µg/mL; in the assay with Staphylococcus aureus (setting [12]), 103 ± 4.5 µM; in the assay with Bacillus subtilis (setting [6]), 17 ± 1.25 µg/mL; in the assay with Bacillus subtilis (setting [11]) it was 17 ± 1.25 µM.

As a reminder, the IC50 is the concentration that inhibits the measured activity by half. The MIC is the lowest concentration found to suppress growth. As usually defined, the inhibition is how much of the control response was suppressed. As usually defined, the EC50 is the concentration needed to bring the measured effect to its halfway point. A higher EC50 goes with a need for much substance.

The record behind these values is PMC8877224, “Diverse Secondary Metabolites from the Coral-Derived Fungus Aspergillus hiratsukae SCSIO 5Bn1003” (Marine Drugs, 2022).
